Measured values taken from patent publication US10093630B2, “Pyrazole compounds and methods of making and using same” (ABIDE THERAPEUTICS, INC., priority 2014, dated 2018).

Tests used:
Assay in all cases: In vitro competitive activity-based protein profiling (gel-based, FP-Rh or HT-01 probe)
Assay type in all cases: biochemical
[1] = target: T1, ABHD6 (Mus musculus, UniProt Q8R2Y0); details: for inhibition at 10 µM: 10 μM inhibitor, read-out: % Inhibition at 10 μM, C = ABHD6; for inhibition at 1 µM: 1 μM inhibitor, read-out: % Inhibition at 1 μM, C = ABHD6
T1 construct: Proteomes (mouse brain membrane fraction or cell lysates); from tissue; host or cells: mouse brain membrane fraction (or cell lysates, not specified)
T1 sequence (Q8R2Y0 1-336): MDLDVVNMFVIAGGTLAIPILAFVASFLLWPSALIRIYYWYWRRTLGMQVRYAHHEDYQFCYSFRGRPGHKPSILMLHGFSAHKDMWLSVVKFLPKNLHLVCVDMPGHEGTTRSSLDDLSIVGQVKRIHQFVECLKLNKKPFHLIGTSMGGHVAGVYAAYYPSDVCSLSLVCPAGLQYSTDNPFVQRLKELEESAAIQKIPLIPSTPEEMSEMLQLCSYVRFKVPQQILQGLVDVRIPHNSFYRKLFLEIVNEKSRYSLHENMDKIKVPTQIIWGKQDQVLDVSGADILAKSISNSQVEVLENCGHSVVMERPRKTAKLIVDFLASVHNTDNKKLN
Summary of the method: (§1)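 Competitive labelling format in mouse brain membrane fractions or lysates at 1.0 mg/mL total protein: compounds preincubate 30 min at 37° C, activity probe FP-Rh or HT-01 then reacts 30 min at 37° C. Gel band fluorescence gives target activity.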

[2] = target: T2, FAAH (Mus musculus, UniProt O08914); details: for inhibition at 10 µM: 10 μM inhibitor, read-out: % Inhibition at 10 μM, B = FAAH; for inhibition at 1 µM: 1 μM inhibitor, read-out: % Inhibition at 1 μM, B = FAAH
T2 construct: Proteomes (mouse brain membrane fraction or cell lysates); from tissue; host or cells: mouse brain membrane fraction (or cell lysates, not specified)
T2 sequence (O08914 1-579): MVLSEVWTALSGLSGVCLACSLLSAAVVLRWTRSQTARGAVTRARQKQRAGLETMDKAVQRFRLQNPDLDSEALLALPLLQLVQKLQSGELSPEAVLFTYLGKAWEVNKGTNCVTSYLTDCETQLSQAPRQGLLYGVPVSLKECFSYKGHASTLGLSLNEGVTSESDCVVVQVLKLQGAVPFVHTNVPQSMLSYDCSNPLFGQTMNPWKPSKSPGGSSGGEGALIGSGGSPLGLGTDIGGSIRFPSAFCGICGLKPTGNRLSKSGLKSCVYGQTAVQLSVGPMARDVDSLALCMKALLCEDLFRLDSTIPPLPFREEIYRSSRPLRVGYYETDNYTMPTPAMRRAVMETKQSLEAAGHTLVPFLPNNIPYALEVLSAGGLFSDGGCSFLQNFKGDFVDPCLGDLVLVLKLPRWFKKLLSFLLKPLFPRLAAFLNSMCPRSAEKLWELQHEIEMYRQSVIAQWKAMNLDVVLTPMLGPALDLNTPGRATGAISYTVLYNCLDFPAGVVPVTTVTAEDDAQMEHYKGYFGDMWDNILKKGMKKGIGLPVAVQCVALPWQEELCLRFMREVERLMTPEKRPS
Summary of the method: as §1

[3] = target: T3, MAGL (Mus musculus, UniProt O35678); details: for inhibition at 10 µM: 10 μM inhibitor; for inhibition at 1 µM: 1 μM inhibitor
T3 construct: Proteomes (mouse brain membrane fraction or cell lysates); from tissue; host or cells: mouse brain membrane fraction (or cell lysates, not specified)
T3 sequence (O35678 1-303): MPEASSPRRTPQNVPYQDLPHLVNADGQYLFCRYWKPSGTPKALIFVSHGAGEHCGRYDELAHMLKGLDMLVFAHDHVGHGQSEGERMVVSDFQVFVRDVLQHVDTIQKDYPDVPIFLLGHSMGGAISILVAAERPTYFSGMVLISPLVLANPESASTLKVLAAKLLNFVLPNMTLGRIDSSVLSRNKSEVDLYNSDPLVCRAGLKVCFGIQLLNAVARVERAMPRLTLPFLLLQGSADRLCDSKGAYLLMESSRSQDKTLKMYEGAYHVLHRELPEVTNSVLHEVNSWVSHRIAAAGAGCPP
Summary of the method: as §1

[4] = target: T4, PLA2G7 (Mus musculus, UniProt Q60963); details: for inhibition at 10 µM: 10 μM inhibitor, read-out: % Inhibition at 10 μM, D = PLA2G7; for inhibition at 1 µM: 1 μM inhibitor, read-out: % Inhibition at 1 μM, D = PLA2G7
T4 construct: Proteomes (mouse brain membrane fraction or cell lysates); from tissue; host or cells: mouse brain membrane fraction (or cell lysates, not specified)
T4 sequence (Q60963 22-440): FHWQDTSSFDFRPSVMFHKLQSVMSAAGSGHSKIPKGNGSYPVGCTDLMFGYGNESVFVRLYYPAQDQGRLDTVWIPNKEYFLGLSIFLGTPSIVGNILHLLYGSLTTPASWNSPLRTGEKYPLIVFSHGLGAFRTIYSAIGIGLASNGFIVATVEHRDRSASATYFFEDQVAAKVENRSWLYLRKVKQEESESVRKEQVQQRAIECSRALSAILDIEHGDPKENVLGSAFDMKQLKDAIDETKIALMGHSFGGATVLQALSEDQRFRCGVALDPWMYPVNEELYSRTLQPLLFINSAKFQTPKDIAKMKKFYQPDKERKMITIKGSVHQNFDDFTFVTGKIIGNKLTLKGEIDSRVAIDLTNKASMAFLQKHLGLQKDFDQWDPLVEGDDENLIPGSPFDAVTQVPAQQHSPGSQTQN
Summary of the method: as §1

| Compound | inhibition at 10 µM [1] | inhibition at 10 µM [2] | inhibition at 10 µM [3] | inhibition at 10 µM [4] | inhibition at 1 µM [1] | inhibition at 1 µM [2] | inhibition at 1 µM [3] | inhibition at 1 µM [4] | IC50 ([1]; mouse brain membrane fraction or cell lysates, 30 min preincubation at 37° C., read-out: Mouse (IC50 value, nM) ABHD6) |
| --- | --- | --- | --- | --- | --- | --- | --- | --- | --- |
| O=C(NCCCCc1ccccc1)n1cccn1 [Example 34, N-(4-Phenylbutyl)-1H-pyrazole-1-carboxamide] | < 25% | < 25% | < 25% | < 25% | – | – | – | – | – |
| Cc1cnn(C(=O)NCCCCc2ccccc2)c1 [Example 35, 4-Methyl-N-(4-phenylbutyl)-1H-pyrazole-1-carboxamide] | < 25% | < 25% | < 25% | < 25% | – | – | – | – | – |
| N#Cc1cnn(C(=O)NCCCCc2ccccc2)c1 [Example 36, 4-Cyano-N-(4-phenylbutyl)-1H-pyrazole-1-carboxamide] | 25 to 75% | > 75% | 25 to 75% | < 25% | < 25% | 25 to 75% | < 25% | < 25% | – |
| O=C(NCCCCCc1ccccc1)n1cccn1 [Example 37, N-(5-phenylpentyl)-1H-pyrazole-1-carboxamide] | < 25% | < 25% | < 25% | < 25% | – | – | – | – | – |
| Cc1cnn(C(=O)NCCCCCc2ccccc2)c1 [Example 38, 4-Methyl-N-(5-phenylpentyl)-1H-pyrazole-1-carboxamide] | < 25% | < 25% | < 25% | < 25% | – | – | – | – | – |
| N#Cc1cnn(C(=O)NCCCCCc2ccccc2)c1 [Example 39, 4-Cyano-N-(5-phenylpentyl)-1H-pyrazole-1-carboxamide] | < 25% | > 75% | 25 to 75% | < 25% | < 25% | < 25% | < 25% | < 25% | – |
| O=C(Nc1ccc2ccccc2c1)n1cccn1 [Example 40, N-(Naphthalen-2-yl)-1H-pyrazole-1-carboxamide] | < 25% | < 25% | > 75% | < 25% | < 25% | < 25% | < 25% | < 25% | – |
| Cc1cnn(C(=O)Nc2ccc3ccccc3c2)c1 [Example 41, 4-Methyl-N-(naphthalen-2-yl)-1H-pyrazole-1-carboxamide] | < 25% | < 25% | > 75% | < 25% | < 25% | < 25% | < 25% | < 25% | – |
| N#Cc1cnn(C(=O)Nc2ccc3ccccc3c2)c1 [Example 42, 4-Cyano-N-(naphthalen-2-yl)-1H-pyrazole-1-carboxamide] | < 25% | < 25% | > 75% | < 25% | < 25% | < 25% | < 25% | < 25% | – |
| O=C(NCc1ccc2ccccc2c1)n1cccn1 [Example 43, N-(Naphthalen-2-ylmethyl)-1H-pyrazole-1-carboxamide] | < 25% | > 75% | 25 to 75% | < 25% | < 25% | < 25% | < 25% | < 25% | – |
| N#Cc1cnn(C(=O)NCc2ccc3ccccc3c2)c1 [Example 45, 4-Cyano-N-(naphthalen-2-ylmethyl)-1H-pyrazole-1-carboxamide] | < 25% | > 75% | 25 to 75% | < 25% | < 25% | < 25% | < 25% | < 25% | – |
| O=C(c1cnn(C(=O)N2CCN(Cc3ccc4c(c3)OCO4)CC2)c1)N1CCOCC1 [Example 51, (4-(Benzo[d][1,3]dioxol-5-ylmethyl)piperazin-1-yl)(4-(morpholine-4-carbonyl)-1H-pyrazol-1-yl)methanone] | > 75% | > 75% | > 75% | > 75% | > 75% | < 25% | < 25% | < 25% | 100 to 1000 nM |
| O=C(c1cnn(C(=O)N2CCN(Cc3ccncc3)CC2)c1)N1CCOCC1 [Example 52, (4-(Morpholine-4-carbonyl)-1H-pyrazol-1-yl)(4-(pyridin-4-ylmethyl)piperazin-1-yl)methanone] | > 75% | < 25% | < 25% | > 75% | 25 to 75% | – | – | < 25% | – |
| O=C(c1cnn(C(=O)N2CCN(Cc3cccnc3)CC2)c1)N1CCOCC1 [Example 53, (4-(Morpholine-4-carbonyl)-1H-pyrazol-1-yl)(4-(pyridin-3-ylmethyl)piperazin-1-yl)methanone] | > 75% | < 25% | 25 to 75% | > 75% | < 25% | – | – | < 25% | – |
| O=C(c1cnn(C(=O)N2CCN(Cc3ccncn3)CC2)c1)N1CCOCC1 [Example 54, (4-(Morpholine-4-carbonyl)-1H-pyrazol-1-yl)(4-(pyrimidin-4-ylmethyl)piperazin-1-yl)methanone] | 25 to 75% | < 25% | 25 to 75% | > 75% | < 25% | – | – | < 25% | – |
| O=C(c1cnn(C(=O)N2CCN(Cc3nccs3)CC2)c1)N1CCOCC1 [Example 55, (4-(Morpholine-4-carbonyl)-1H-pyrazol-1-yl)(4-(thiazol-2-ylmethyl)piperazin-1-yl)methanone] | > 75% | 25 to 75% | < 25% | > 75% | 25 to 75% | – | – | < 25% | – |
| O=C(c1cnn(C(=O)N2CCN(Cc3cncnc3)CC2)c1)N1CCOCC1 [Example 56, (4-(Morpholine-4-carbonyl)-1H-pyrazol-1-yl)(4-(pyrimidin-5-ylmethyl)piperazin-1-yl)methanone] | > 75% | < 25% | < 25% | > 75% | < 25% | – | – | < 25% | – |
